Experimental data from publication PMC8362126, “Proteolysis Targeting Chimera (PROTAC) for Macrophage Migration Inhibitory Factor (MIF) Has Anti‐Proliferative Activity in Lung Cancer Cells” (Angewandte Chemie (International Ed. in English), 2021).
Where “and” joins values, the source holds several entries; their conditions need not be identical. Identical values can stand only once.

Assays:
MIF [1] = molecular target: T1, MIF (Homo sapiens, UniProt P14174); assay: MIF degradation in HEK293 cells, western-blot; type: cell-based; design: endogenous in cells; details: 200 nM
T1 sequence (P14174 2-115 limits assumed): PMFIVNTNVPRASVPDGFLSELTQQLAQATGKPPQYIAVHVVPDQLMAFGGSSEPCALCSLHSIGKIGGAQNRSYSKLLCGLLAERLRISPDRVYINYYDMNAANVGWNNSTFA

MIF [2] = molecular target: T1, MIF; assay: MIF degradation in A549 cells, cell lysate-based ELISA; design: endogenous in cells; host or cells: A549 (ATCC CCL-185); details: A549 cells; for degradation [%] 2 μM: vs DMSO, mean±SD n=3
Experimental: In addition, A549 cells have been successfully used for assessing activity of cereblon ligand‐based PROTACs previously.[42] Therefore, A549 is a suitable cell line for evaluating the effect of our putative MIF‐directed PROTACs MD1 to MD12 on MIF protein levels. The reduction in MIF levels were monitored in A549 cells that were treated with two different PROTAC concentrations (20 and 2 μM) for 12 h in order to estimate the dose dependency, which is important for PROTACs because of the Hook effect.[35] The MIF levels in cell lysates were analyzed using an enzyme‐linked immunosorbent assay (ELISA).
S3. ELISA screening of MIF protein level on MIF-directed PROTACs
Cell culture. Human A549 lung cancer cells (ATCCCCL-185) or HEK293 kidney […]
containing 10% (v/v) fetal bovine serum (FBS), 100 U/mL penicillin/streptomycin […]
ELISA. 7×10^5 A549 cells per well were plated in 6-well plates. The next day, cells were treated with a solution of compounds or the vehicle for 12 h. Subsequently, the culture medium was removed and cells were washed twice with cold PBS and collected after trypsin (0.5 mL) degestion. Cells were then lyzed in lysis buffer (150 mM NaCl, 50 mM Hepes pH 7.5, 5 mM EDTA, 0.1% (w/v) NP40) containing protease inhibitor cocktail (Roche, #11836153001) and resuspended vigourously. The supernatant was collected after spinning down at 16 000g at 4 °C for 30 min. The total protein concentration was determined with PierceTM BCA protein assay kit ( ThermoFisher , #23225). The protein concentration was normalized between samples. The relative MIF levels from 1µg total protein were determined by ELISA with the human MIF DuoSet ELISA kit according to the instructions of the manufacturer (R&D systems, #DY289).
Figure S1. Screening of compounds for MIF degradation activity by cell lysate -based ELISA.
A549 cells were treated with compounds at (A) 20 or (B) 2 µM for 12 h. Data was normalized […]
(1 picture or pasted object on this page, not shown here)

MIF [3] = molecular target: T1, MIF; assay: MIF immunofluorescence staining, confocal microscopy; type: cell-based; design: endogenous in cells; host or cells: A549 (ATCC CCL-185); details: A549 cells, 1 μM, 12 hours
Description: Since PROTACs are relatively large heterobifunctional molecules, the efficacy of these compounds may be limited by poor cell permeability.[47] In order to estimate the cellular uptake of PROTAC MD13, the intrinsic fluorescence properties of the pomalidomide part of MD13 were employed for visualization of its subcellular localization. […] In parallel, the subcellular localization of MIF and its decrease in situ upon MD13 treatment was visualized by confocal fluorescence microscopy using a fluorescent secondary antibody.
S5. Subcellular colocalization study
To visualize the intracellular location of MD13 and MIF protein, immunofluorescence staining was applied. A549 cells were seeded on glass coverslips in a 6-well plate at a density of 1x10^5 cells per well. After overnight incubation, cells were treated with 1 µM MD13 for 1 hour to study the internalization of MD13 or 12 hours to study the degradation of MIF protein.
The cells with 1-hour treatment were fixed with methanol before coverslips were mounted onto slides with anti-fading mounting medium with DAPI stain (Invitrogen, Waltham, MA. USA).
To visualize MIF protein, cells after 12-hour treatment were fixed with methanol and then unspecific binding was blocked with blocking buffer (1% BSA, 22.52 mg/mL glycine in 0.1%PBST). […]
USA). […] The pictures were acquired using a Leica SP8 confocal laser scanning microscope and analyzed by ImageJ. […]

MIF [4] = molecular target: T1, MIF; assay: MIF degradation in A549 cells, cell lysate-based ELISA; design: endogenous in cells; host or cells: A549 (ATCC CCL-185); details: 12 h, vs DMSO, mean±SD n=3

Compound | MIF degradation (MIF [1]) | degradation [%] 2 μM (MIF [2]; 12 h) | DC50 (MIF [2]; 12 h, ELISA, read-out: DC50) [nM] | Hook effect (MIF [2]; at 20 μM, ELISA and western-blot) | MIF depletion in situ (MIF [3]) | degradation [%] 0.2 μM (MIF [4])
O=C1CCC(N2C(=O)c3cccc(NCCCCCCCC(=O)Nc4ccc(N5Cc6ccc(O)cc6OC5=O)cc4)c3C2=O)C(=O)N1 (centres unmarked) [MD13] | more than 90% | 91% and 91±5% | ~200 | Hook effect | significantly depleted MIF | 71% and 71±7%
CN1C(=O)CCC(N2C(=O)c3cccc(NCCCCCCCC(=O)Nc4ccc(N5Cc6ccc(O)cc6OC5=O)cc4)c3C2=O)C1=O (centres unmarked) [MD15] |  | not capable of inducing MIF degradation and n.s. |  |  |  | not capable of inducing MIF degradation and n.s.
